# In paper PMC11428593 (Antibiotics, 2024):
# “Also recorded” adds a separate entry of the source. Where two headings read alike, the source gives them in different places.
# How the values were obtained:
# MRSA ATCC 33591 = assay: MIC by broth microdilution (CLSI); assay type: cell-based; settings: Staphylococcus aureus, MHB, 37 °C, 16 h
# Source text: (§1) To assess the impact of the nitrogen position in our newly synthesized anaephene derivates, we analyzed their antimicrobial activities against various S. aureus strains, including ATCC 25,923 and the two methicillin-resistant S. aureus (MRSA) strains ATCC 33,591 and ATCC BAA-44. […] We determined the minimum inhibitory concentrations (MIC) of each of our compounds against the different bacterial strains by broth microdilution following the CLSI guidelines. As expected, all five compounds tested were completely ineffective against the Gram-negative P. aeruginosa strain ATCC 27,853 (Table 1).
# (§2) The MIC values of the alkyl pyridinol derivatives against the S. aureus strain ATCC 25923, MRSA strains ATCC 33591, ATCC BAA-44, and USA300LAC, as well as the P. aeruginosa strain ATCC 27853, were determined by following the CLSI guidelines for the broth microdilution antibiotic sensitivity testing protocol. In brief, the overnight cultures were diluted into Mueller Hinton Broth (MHB) to a final inoculum concentration of 5 × 10^5 CFU/mL (O.D600nm = 0.00001) and dispensed into a 96-well polystyrene plate (Alkali Scientific, Fort Lauderdale, FL, USA). Alkyl pyridine compounds were diluted into inoculated MHB to the indicated concentrations from stock solutions that would allow for DMSO concentrations below 5%, resulting in a total volume of 200 μL per well. The plates were subsequently incubated at 37 °C for 16 h at 300 rpm. The MIC values, which are defined as the lowest compound concentration that inhibited growth, were determined from three biological replicates.
# MRSA ATCC BAA-44 = assay: MIC by broth microdilution (CLSI); assay type: cell-based; settings: Staphylococcus aureus, MHB, 37 °C, 16 h
# Source text: as §1, §2
# P. aeruginosa ATCC 27853 = assay: MIC by broth microdilution (CLSI); assay type: cell-based; settings: Pseudomonas aeruginosa, ATCC27853, MHB, 37 °C, 16 h
# Source text: as §1, §2
# S. aureus ATCC 25923 = assay: MIC by broth microdilution (CLSI); assay type: cell-based; settings: Staphylococcus aureus, ATCC25923, MHB, 37 °C, 16 h
# Source text: as §1, §2
# MRSA USA300LAC [1] = assay: MIC by broth microdilution (CLSI); assay type: cell-based, Staphylococcus aureus; settings: Staphylococcus aureus; MRSA USA300LAC; MHB, 37 °C, 16 h; read-out: MIC
# Method: as §2
# S. aureus/MRSA strains = assay: MIC by broth microdilution, S. aureus/MRSA strains; assay type: cell-based, Staphylococcus aureus; settings: S. aureus/MRSA strains tested, strain not singled out
# Source text: as §1, §2
# MRSA USA300LAC [2] = assay: Minimal bactericidal concentration (MBC); assay type: cell-based, Staphylococcus aureus; settings: for MBC: Staphylococcus aureus, MRSA USA300LAC, concentration at which no CFUs were observed; for bactericidal or bacteriostatic effect: USA300LAC, in words
# Method: In brief, 10 µL of each culture was serially diluted and plated onto prewarmed LB agar and incubated overnight at 37 °C under static conditions to observe the colony-forming units (CFUs). The concentration at which no CFUs were observed was recorded as the MBC.
# [3] = tested on: S. aureus strain USA300LAC; assay: Growth curve-based assay of exponentially growing cells; assay type: cell-based, Staphylococcus aureus
# Method: Considering the divergent antimicrobial effects of our new compounds, we proceeded to assess the impact of JC-01-072 and JC-01-074 on the growth of exponentially growing USA300LAC cells. We performed growth-curve-based assays of the USA300LAC cultures that were either left untreated or treated with 4–16 μg/mL of the alkyl pyridinol compound once they reached the mid-log phase (OD600nm~0.2–0.3).
# Figure 2 Impact of alkyl pyridinol exposure on exponentially growing S. aureus. An overnight culture of the S. aureus strain USA300LAC was diluted into fresh TSB and grown to mid-exponential phase (OD600nm = 0.2–0.3) prior to treatment with 4–16 µg/mL JC-01-072 (A) and JC-01-074 (B). Optical densities were measured at 600 nm at 10 min intervals for 16–18 h (n = 3, ±S.D.).
# The overnight USA300LAC cultures were diluted into fresh TSB media to an O.D.600nm = 0.001 and incubated at 37 °C under shaking conditions (300 rpm) until an O.D.600nm of 0.2–0.3 (early log phase) was reached. The cultures were subsequently transferred to a 96-well polystyrene plate (Alkali Scientific, Fort Lauderdale, FL, USA), following which DMSO (control) or alkyl pyridine compounds were added at the indicated final concentrations. The cells were then incubated at 37 °C for 16 h at 300 rpm, and the O.D.600nm measurements were taken every 10 min for 16 h in a Tecan Infinite 200 plate reader (Tecan, Morgan Hill, CA, USA).
# USA300LAC cells = assay: Propidium iodide uptake assay (membrane damage); assay type: cell-based, Staphylococcus aureus
# Source text: The alkyl pyridinol derivates synthesized in this study are characterized by high lipophilicity. To determine whether and to what extent these compounds incorporate into and disrupt the phospholipid bilayer of the S. aureus cell envelope, we performed a propidium iodide (PI) uptake assay. Given the membrane-impermeable nature of PI, the fluorophore can be used to assess membrane disruption in cells by measuring its non-specific interaction with DNA, which leads to enhanced fluorescence. […] The extent of membrane damage caused by JC-01-074 occurred in a dose-dependent manner.
# Figure 4 JC-01-074 causes significant membrane damage in S. aureus. Membrane damage was evaluated via propidium iodide (PI) staining. […] Treatment of USA300LAC with 2.5% DMSO, 4 µg/mL vancomycin, and 0.25% SDS were included as negative and positive controls, respectively. Cells were collected, washed, resuspended in PBS, and stained with 1 µM PI. PI fluorescence was measured (exc./em. wavelengths: 535/615 nm) and normalized to OD600nm. One-way ANOVA, Dunnett’s multiple-comparison test (* p < 0.05, **** p < 0.0001); (n = 3, ±S.D.).
# The plasma membrane integrity was determined using the Propidium Iodide Uptake assay, as previously described. Briefly, the overnight cultures of USA300LAC were diluted into fresh TSB media, grown to an early log phase at 37 °C and 300 rpm, and treated with either DMSO, an alkyl pyridinol derivate, vancomycin, or SDS at the indicated concentrations for 1 h. Following two washing steps, the cells were then resuspended in phosphate-buffered saline (PBS), pH = 7.4, and subsequently stained with 1 µM propidium iodide (PI). The PI fluorescence intensity was determined at an excitation wavelength of 535 nm and an emission wavelength of 615 nm.
# [4] = Staphylococcus aureus, MRSA, read-out: MIC
MIC (MRSA ATCC 33591),MIC (MRSA ATCC BAA-44),MIC (P. aeruginosa ATCC 27853),MIC (S. aureus ATCC 25923),MIC (MRSA USA300LAC [1]),MIC (S. aureus/MRSA strains),MIC (S. aureus/MRSA strains; [4]),"effect on growth at 1× MIC ([3]; 1× MIC, mid-log USA300LAC)",SMILES,MBC (MRSA USA300LAC [2]),bactericidal or bacteriostatic effect (MRSA USA300LAC [2]),"effect on growth of mid-log USA300LAC cells ([3]; 4–16 μg/mL, added at OD600nm ~0.2–0.3)","changes in PI intensity (USA300LAC cells; up to 2× MIC, 1 h exposure)","delay of growth ([3]; 0.5× MIC, mid-log USA300LAC)",PI fluorescence compared to DMSO-treated control (USA300LAC cells; 1 h treatment at MIC ([…] µg/mL))
4 µg/mL,4 µg/mL,> 128 µg/mL,4 µg/mL,8 µg/mL,4 to 8 µg/mL,4 µg/mL,,CCCCCCCCCC#Cc1cncc(O)c1 [JC-01-072],> 128 µg/mL,bacteriostatic; also recorded: no significant killing,little to no effects,minimal changes,,
16 µg/mL,16 µg/mL,> 128 µg/mL,16 µg/mL,16 µg/mL,,16 µg/mL,total growth arrest,CCCCCCCCCC#Cc1cccc(O)n1 [JC-01-074],16 µg/mL,bactericidal,,,6 to 8 h,about five-fold higher PI fluorescence
